Results reported in patent publication US7875607B2, “7,8-bicycloakyl-chroman derivatives” (Ampere Life Sciences, Inc., priority 2004, dated 2011).

Test system: IL-1beta production in mouse microglial cell line
Assay: Interleukin-1β microglial cell assay
Assay type: cell-based
Settings: LPS 10 μg/ml and IFN gamma 10 ng/ml, 24 hours, read-out: EC50, inhibition of IL-1beta production
Description: This assay measures the release of IL-1β from a mouse microglial cell line following an inflammatory challenge with LPS and interferon-gamma. The ability of test articles to inhibit microglial cell activation and IL-1β release is determined by co-incubation of the test article with the inflammatory challenge.
Mouse microglial cells were seeded in poly-D-lysine coated 96-well plates at a density of 10,000 cells/well and allowed to attach for 24 hours. Cells were stimulated by addition of LPS (10 μg/ml) and IFN gamma (10 ng/ml) in the presence or absence of test article. The cells were then incubated for 24 hours at 37° C., after which time the media was removed and used for cytokine determination as described below.
Viability of mouse microglial cells after exposure to the test article was determined using a fluorescent viability dye, Cell Tracker Green. Cell Tracker Green was used at a working concentration of 5 μM in 1×HBSS. Cells were washed once with HBSS (200 μl/well) and 100 μl Cell Tracker Green was added to each well. Cells were then incubated at 37° C. for 30 minutes, after which time the Cell Tracker was removed and the cells were washed once with HBSS (200 μl/well). 100 μl fresh HBSS was added to each well and the plate was read on a Fluoroskan plate reader using an excitation wavelength of 485 nm and an emission wavelength of 538 nm.
Solutions: • Wash Buffer: PBS 1 L+500 μl Tween 20 (final 0.05%) pH 7.2-7.4. • Blocking Buffer: 500 ml PBS+5 g BSA V (1%)+25 g Sucrose (5%)+0.25 g Sodium Azide (0.05%). • Reagent Diluent: 500 ml PBS+5 g BSA V (1%) pH 7.2-7.4 and filter sterilize through 0.2 μm. • Stop Solution: 2N sulfuric acid.
Duo Set Preparations: • 1. The IL-1β capture antibody was reconstituted in 1 ml of PBS to give a final concentration of 720 μg/ml, and the working concentration was 4 μg/ml. For coating one 96-well plate (at 100 μl/well) 56 μl of the 720 μg/ml stock was diluted into 10 ml of PBS. • 2. The IL-1β standards were reconstituted in 0.5 ml of Reagent Diluent (70 ng/ml). For a high standard of 1 ng/ml (2 wells at 100 μl each+enough for series dilution) 7.1 μl of the 70 ng/ml standard were diluted into 0.5 ml of Reagent Diluent • 3. The IL-1β detection antibody was reconstituted in 1 ml of Reagent Diluent to give a final concentration of 18 μg/ml and the working concentration is 100 ng/ml. For one 96-well plate (at 100 μl/well) 56 μl of the 18 μg/ml stock was diluted into 10 ml of Reagent Diluent.
• The Costar EIA Hi-binding plate was coated with capture antibody at 4 μg/ml. Each well was coated with 100 μl, and the plate was sealed and incubated overnight at room temperature. • Each well was aspirated and washed 3× with Wash Buffer. Each well was filled to the top, dispensed, and any remaining buffer was removed by inverting the plate and gently blotting against clean paper towels. • Non-specific binding sites were blocked by adding 300 μl of Blocking Buffer to each well, and after sealing incubating for at least 1 hour at room temperature. • After washing the plate was now ready for the samples. Assay Procedure: • 100 μl of either standard or sample were added in each well of the capture-coated and pre-blocked plate. The plate was sealed and incubated for 2 hours at room temperature, followed with washing. • 100 μl of the detection antibody (10 ng/ml) were added to each well. […]

| EC50 | SMILES |
| --- | --- |
| ≤ 20 µM | CC(C)=CCc1c(O)c2c(c3c1CCC(C)(C)O3)C1CCC2C1 (centres unmarked) [2,2-Dimethyl-5-(3-methyl-but-2-enyl)-3,4,7,8,9,10-hexahydro-7,10-methano-2H-benzo[h]chromen-6-ol] |
| ≤ 20 µM | CC(C)CCc1c(O)c2c(c3c1CCC(C)(C)O3)C1CCC2C1 (centres unmarked) [2,2-Dimethyl-5-(3-methyl-butyl)-3,4,7,8,9,10-hexahydro-7,10-methano-2H-benzo[h]chromen-6-ol] |
